Data from the NIST ThermoML archive (doi:10.1016/j.fluid.2014.10.016).
± gives the expanded uncertainty stated by the source.

Key:
[1] = excess molar enthalpy (molar enthalpy of mixing); xn = mol fraction of the nth substance listed; conditions: 101 kPa, Liquid, Flow calorimetry
[2] = 313.15 K; Liquid; Closed cell (Static) method

Compound `CCCC(C)O` (configuration not stated) [pentan-2-ol] + CC(C)CC(C)(C)C has an excess molar enthalpy ([1]; 298.15 K, x1 = 0.0507) of 0.476 ± 0.0064 kJ/mol, an excess molar enthalpy ([1]; 298.15 K, x1 = 0.0997) of 0.644 ± 0.0083 kJ/mol and an excess molar enthalpy ([1]; 298.15 K, x1 = 0.1498) of 0.726 ± 0.0093 kJ/mol. The excess molar enthalpy ([1]; 298.15 K, x1 = 0.2009) was 0.795 ± 0.01 kJ/mol, the excess molar enthalpy ([1]; 298.15 K, x1 = 0.25) was 0.847 ± 0.011 kJ/mol and the excess molar enthalpy ([1]; 298.15 K, x1 = 0.3022) was 0.892 ± 0.011 kJ/mol. The excess molar enthalpy ([1]; 298.15 K, x1 = 0.3503) was 0.922 ± 0.012 kJ/mol, the excess molar enthalpy ([1]; 298.15 K, x1 = 0.4011) was 0.951 ± 0.012 kJ/mol and the excess molar enthalpy ([1]; 298.15 K, x1 = 0.4521) was 0.959 ± 0.012 kJ/mol. For the same compound, the excess molar enthalpy ([1]; 298.15 K, x1 = 0.5011) was 0.956 ± 0.012 kJ/mol, the excess molar enthalpy ([1]; 298.15 K, x1 = 0.5521) was 0.921 ± 0.012 kJ/mol and the excess molar enthalpy ([1]; 298.15 K, x1 = 0.601) was 0.879 ± 0.011 kJ/mol. It also gave an excess molar enthalpy ([1]; 298.15 K, x1 = 0.6517) of 0.819 ± 0.01 kJ/mol, an excess molar enthalpy ([1]; 298.15 K, x1 = 0.7019) of 0.741 ± 0.0095 kJ/mol and an excess molar enthalpy ([1]; 298.15 K, x1 = 0.7517) of 0.647 ± 0.0084 kJ/mol. The excess molar enthalpy ([1]; 298.15 K, x1 = 0.8009) was 0.537 ± 0.007 kJ/mol, the excess molar enthalpy ([1]; 298.15 K, x1 = 0.851) was 0.417 ± 0.0056 kJ/mol and the excess molar enthalpy ([1]; 298.15 K, x1 = 0.9002) was 0.283 ± 0.004 kJ/mol. The excess molar enthalpy ([1]; 298.15 K, x1 = 0.95) was 0.141 ± 0.0023 kJ/mol, the excess molar enthalpy ([1]; 298.15 K, x1 = 1) was 0 ± 0.001 kJ/mol and the excess molar enthalpy ([1]; 313.15 K, x1 = 0.0507) was 0.61 ± 0.0081 kJ/mol. It also gave an excess molar enthalpy ([1]; 313.15 K, x1 = 0.0998) of 0.822 ± 0.011 kJ/mol, an excess molar enthalpy ([1]; 313.15 K, x1 = 0.1499) of 0.938 ± 0.012 kJ/mol and an excess molar enthalpy ([1]; 313.15 K, x1 = 0.2009) of 1.02 ± 0.013 kJ/mol. The excess molar enthalpy ([1]; 313.15 K, x1 = 0.2499) was 1.08 ± 0.014 kJ/mol, the excess molar enthalpy ([1]; 313.15 K, x1 = 0.3023) was 1.12 ± 0.014 kJ/mol and the excess molar enthalpy ([1]; 313.15 K, x1 = 0.3502) was 1.13 ± 0.014 kJ/mol. It also gave an excess molar enthalpy ([1]; 313.15 K, x1 = 0.401) of 1.14 ± 0.014 kJ/mol, an excess molar enthalpy ([1]; 313.15 K, x1 = 0.452) of 1.14 ± 0.014 kJ/mol and an excess molar enthalpy ([1]; 313.15 K, x1 = 0.501) of 1.12 ± 0.014 kJ/mol. It also gave an excess molar enthalpy ([1]; 313.15 K, x1 = 0.552) of 1.09 ± 0.014 kJ/mol, an excess molar enthalpy ([1]; 313.15 K, x1 = 0.601) of 1.04 ± 0.013 kJ/mol and an excess molar enthalpy ([1]; 313.15 K, x1 = 0.6516) of 0.964 ± 0.012 kJ/mol. The excess molar enthalpy ([1]; 313.15 K, x1 = 0.7018) was 0.883 ± 0.011 kJ/mol, the excess molar enthalpy ([1]; 313.15 K, x1 = 0.7516) was 0.775 ± 0.0099 kJ/mol and the excess molar enthalpy ([1]; 313.15 K, x1 = 0.8008) was 0.66 ± 0.0085 kJ/mol. For the same compound, the excess molar enthalpy ([1]; 313.15 K, x1 = 0.851) was 0.512 ± 0.0067 kJ/mol, the excess molar enthalpy ([1]; 313.15 K, x1 = 0.9002) was 0.358 ± 0.0049 kJ/mol and the excess molar enthalpy ([1]; 313.15 K, x1 = 0.95) was 0.185 ± 0.0028 kJ/mol. It also gave an excess molar enthalpy ([1]; 313.15 K, x1 = 1) of 0 ± 0.001 kJ/mol.

With `CCCCCCC` [heptane] the “vapor or sublimation pressure” value [2] was 12.31 ± 0.03 kPa.

`CCCC(C)O` (configuration not stated) [pentan-2-ol] + CCCCCCC gave an excess molar enthalpy ([1]; 298.15 K, x1 = 0.0505) of 0.489 ± 0.0066 kJ/mol, an excess molar enthalpy ([1]; 298.15 K, x1 = 0.0997) of 0.63 ± 0.0082 kJ/mol and an excess molar enthalpy ([1]; 298.15 K, x1 = 0.1477) of 0.725 ± 0.0093 kJ/mol. For the same compound, the excess molar enthalpy ([1]; 298.15 K, x1 = 0.1969) was 0.795 ± 0.01 kJ/mol, the excess molar enthalpy ([1]; 298.15 K, x1 = 0.2472) was 0.849 ± 0.011 kJ/mol and the excess molar enthalpy ([1]; 298.15 K, x1 = 0.2962) was 0.882 ± 0.011 kJ/mol. The excess molar enthalpy ([1]; 298.15 K, x1 = 0.346) was 0.917 ± 0.012 kJ/mol, the excess molar enthalpy ([1]; 298.15 K, x1 = 0.3967) was 0.939 ± 0.012 kJ/mol and the excess molar enthalpy ([1]; 298.15 K, x1 = 0.4459) was 0.95 ± 0.012 kJ/mol. The excess molar enthalpy ([1]; 298.15 K, x1 = 0.4958) was 0.946 ± 0.012 kJ/mol, the excess molar enthalpy ([1]; 298.15 K, x1 = 0.5463) was 0.925 ± 0.012 kJ/mol and the excess molar enthalpy ([1]; 298.15 K, x1 = 0.5972) was 0.889 ± 0.011 kJ/mol. It also gave an excess molar enthalpy ([1]; 298.15 K, x1 = 0.6466) of 0.835 ± 0.011 kJ/mol, an excess molar enthalpy ([1]; 298.15 K, x1 = 0.6963) of 0.759 ± 0.0097 kJ/mol and an excess molar enthalpy ([1]; 298.15 K, x1 = 0.748) of 0.665 ± 0.0086 kJ/mol. The excess molar enthalpy ([1]; 298.15 K, x1 = 0.7981) was 0.554 ± 0.0072 kJ/mol, the excess molar enthalpy ([1]; 298.15 K, x1 = 0.8483) was 0.431 ± 0.0057 kJ/mol and the excess molar enthalpy ([1]; 298.15 K, x1 = 0.8985) was 0.295 ± 0.0041 kJ/mol. The excess molar enthalpy ([1]; 298.15 K, x1 = 0.9486) was 0.15 ± 0.0024 kJ/mol, the excess molar enthalpy ([1]; 298.15 K, x1 = 1) was 0 ± 0.001 kJ/mol and the excess molar enthalpy ([1]; 313.15 K, x1 = 0.0504) was 0.612 ± 0.0081 kJ/mol. It also gave an excess molar enthalpy ([1]; 313.15 K, x1 = 0.0996) of 0.825 ± 0.011 kJ/mol, an excess molar enthalpy ([1]; 313.15 K, x1 = 0.1475) of 0.933 ± 0.012 kJ/mol and an excess molar enthalpy ([1]; 313.15 K, x1 = 0.1967) of 1.01 ± 0.013 kJ/mol. It also gave an excess molar enthalpy ([1]; 313.15 K, x1 = 0.2469) of 1.07 ± 0.014 kJ/mol, an excess molar enthalpy ([1]; 313.15 K, x1 = 0.2956) of 1.11 ± 0.014 kJ/mol and an excess molar enthalpy ([1]; 313.15 K, x1 = 0.3455) of 1.13 ± 0.014 kJ/mol. For the same compound, the excess molar enthalpy ([1]; 313.15 K, x1 = 0.3962) was 1.14 ± 0.014 kJ/mol, the excess molar enthalpy ([1]; 313.15 K, x1 = 0.4454) was 1.14 ± 0.014 kJ/mol and the excess molar enthalpy ([1]; 313.15 K, x1 = 0.4953) was 1.13 ± 0.014 kJ/mol. It also gave an excess molar enthalpy ([1]; 313.15 K, x1 = 0.5458) of 1.1 ± 0.014 kJ/mol, an excess molar enthalpy ([1]; 313.15 K, x1 = 0.5968) of 1.05 ± 0.013 kJ/mol and an excess molar enthalpy ([1]; 313.15 K, x1 = 0.6462) of 0.993 ± 0.013 kJ/mol. For the same compound, the excess molar enthalpy ([1]; 313.15 K, x1 = 0.6959) was 0.895 ± 0.011 kJ/mol, the excess molar enthalpy ([1]; 313.15 K, x1 = 0.7477) was 0.794 ± 0.01 kJ/mol and the excess molar enthalpy ([1]; 313.15 K, x1 = 0.7979) was 0.673 ± 0.0087 kJ/mol. The excess molar enthalpy ([1]; 313.15 K, x1 = 0.8481) was 0.53 ± 0.0069 kJ/mol, the excess molar enthalpy ([1]; 313.15 K, x1 = 0.8984) was 0.368 ± 0.005 kJ/mol and the excess molar enthalpy ([1]; 313.15 K, x1 = 0.9485) was 0.193 ± 0.0029 kJ/mol. The excess molar enthalpy ([1]; 313.15 K, x1 = 1) was 0 ± 0.001 kJ/mol.

With `CCCC(C)O` (configuration not stated) [pentan-2-ol] the “vapor or sublimation pressure” value [2] was 2.295 ± 0.015 kPa.

With `CC(C)CC(C)(C)C` [2,2,4-trimethylpentane] the “vapor or sublimation pressure” value [2] was 12.97 ± 0.031 kPa.

In the case of `CC(C)CC(C)(C)C` [2,2,4-trimethylpentane] + CCCC(C)O, the excess molar enthalpy ([1]; 298.15 K, x2 = 0) is reported as 0 ± 0.001 kJ/mol and the excess molar enthalpy ([1]; 313.15 K, x2 = 0) is reported as 0 ± 0.001 kJ/mol.

For `CCCCCCC` [heptane] + CCCC(C)O, the excess molar enthalpy ([1]; 298.15 K, x2 = 0) was 0 ± 0.001 kJ/mol and the excess molar enthalpy ([1]; 313.15 K, x2 = 0) was 0 ± 0.001 kJ/mol.
